Assay results published in US4551445A, “Derivatives of arginine vasopressin antagonists” (The Medical College of Ohio, priority 1983, dated 1985).
Starred links: 1 amine or outer side, 2 acyl side, 3 side chain; linkers in the order of their positions; H or OH if unused. Positions of bridges follow the written chain, without caps; N, C: chain ends. Non-standard residues stand in square brackets, D forms with d. Residues, ends and D or L forms follow the SMILES beside them. X1 = O=C(CC1(S[*:2])CCCCC1)[*:1]

What was measured:
[1] = tested on: vasopressor response to arginine vasopressin; test: Antivasopressor: antagonism to the vasopressor response (Dyckes et al.); type: in vivo; details: for Antivasopressor pA2: Table 1, estimated in vivo pA2; for Antagonistic Activities Antivasopressor pA2: table; for Antivasopressor Potency ED / AD/VP: Table 2; for Antivasopressor Potency ED: effective dose; for AD/VP: ratio, values fit antivasopressor ED / anti-antidiuretic ED
Description: Antagonism to the vasopressor response was estimated in accordance with Dyckes et al., J. Med. Chem., vol. 17 (1974) at 969. The values are expressed as pA2 values, defined as in Schild et al., Br. J. Pharmacol., vol. 2 (1947) at 189.
(§1) Antagonistic potencies were determined and expressed as "effective doses" and pA2 values. The "effective dose" is defined as the dose (in nanomoles per kilogram) that reduces the response seen from 2x units of agonist injected 20 min after the dose of antagonist to the response with 1x units of agonist. Estimated in vivo "pA2 " values represent the negative logarithms of the effective doses, divided by the estimated volume of distribution (67 ml/kg).

[2] = tested on: antidiuretic response to arginine vasopressin (ADH); test: Anti-antidiuretic: antagonism of the antidiuretic response to subsequent injections of vasopressin; type: in vivo, rats; details: for Anti-Antidiuretic ED: effective dose
Description: Activity as antidiuretic agonists was determined by intravenous injection of the compounds being evaluated in ethanol-anesthesized water-loaded rats in accordance with Sawyer, Endocrinology, vol. 63 (1958) at 694. Antagonism of the response to subsequent injections of vasopressin was tested as described by Sawyer et al., Science, vol. 212 (1981) at 49.
as §1

[3] = Table 1, estimated in vivo pA2, volume of distribution 67 ml/kg
[4] = Table 2, estimated in vivo pA2, volume of distribution 67 ml/kg

Molecule | Antivasopressor pA2 [1] | Anti-Antidiuretic pA2 [2, 3] | Anti-Antidiuretic pA2 [2, 4] | other results
CCOc1ccc(C[C@H]2NC(=O)CC3(CCCCC3)SSC[C@@H](C(=O)N3CCC[C@H]3C(=O)N[C@@H](CCCNC(=N)N)C(=O)NCC(N)=O)NC(=O)[C@H](CC(N)=O)NC(=O)[C@H](C(C)C)NC(=O)[C@H](Cc3ccccc3)NC2=O)cc1 [d(CH2)5 --D-Tyr(Et)VAVP] ([dY](Et)FVNCPRG-NH2; linker N-5 via X1) | 8.22 ± 0.12 | 7.81 ± 0.07 | – | –
COc1ccc(C[C@H]2NC(=O)CC3(CCCCC3)SSC[C@@H](C(=O)N3CCC[C@H]3C(=O)N[C@@H](CCCNC(=N)N)C(=O)NCC(N)=O)NC(=O)[C@H](CC(N)=O)NC(=O)[C@H](C(C)C)NC(=O)[C@H](Cc3ccccc3)NC2=O)cc1 [d(CH2)5 --D-Tyr(Me)VAVP] ([dY](Me)FVNCPRG-NH2; linker N-5 via X1) | 8.48 ± 0.08 | 7.77 ± 0.07 | – | –
N=C(N)NCCC[C@H](NC(=O)[C@@H]1CCCN1C(=O)[C@@H]1CSSC2(CCCCC2)CC(=O)N[C@H](Cc2ccccc2)C(=O)N[C@@H](Cc2ccccc2)C(=O)N[C@@H](Cc2ccccc2)C(=O)N[C@@H](CC(N)=O)C(=O)N1)C(=O)NCC(N)=O [d(CH2)5 D-Phe^2 Phe^4 AVP, [1-(β-mercapto-β,β-cyclopentamethylenepropionic acid), 2-D-phenylalanine, 4-phenylalanine]-arginine vasopressin] ([dF]FFNCPRG-NH2; linker N-5 via X1) | – | – | 6.07 | –
C[C@@H](O)[C@@H]1NC(=O)[C@H](Cc2ccccc2)NC(=O)[C@@H](Cc2ccccc2)NC(=O)CC2(CCCCC2)SSC[C@@H](C(=O)N2CCC[C@H]2C(=O)N[C@@H](CCCNC(=N)N)C(=O)NCC(N)=O)NC(=O)[C@H](CC(N)=O)NC1=O [d(CH2)5 D-Phe^2 Thr^4 AVP, [1-(β-mercapto-β,β-cyclopentamethylenepropionic acid), 2-D-phenylalanine, 4-threonine]-arginine vasopressin] ([dF]FTNCPRG-NH2; linker N-5 via X1) | – | – | 7.62 | –
N=C(N)NCCC[C@H](NC(=O)[C@@H]1CCCN1C(=O)[C@@H]1CSSC2(CCCCC2)CC(=O)N[C@H](Cc2ccccc2)C(=O)N[C@@H](Cc2ccccc2)C(=O)N[C@@H](Cc2ccc(O)cc2)C(=O)N[C@@H](CC(N)=O)C(=O)N1)C(=O)NCC(N)=O [d(CH2)5 D-Phe^2 Tyr^4 AVP, [1-(β-mercapto-β,β-cyclopentamethylenepropionic acid), 2-D-phenylalanine, 4-tyrosine]-arginine vasopressin] ([dF]FYNCPRG-NH2; linker N-5 via X1) | – | – | ~ 5.57 | –
CC(C)[C@@H]1NC(=O)[C@H](Cc2ccccc2)NC(=O)[C@@H](Cc2ccccc2)NC(=O)CC2(CCCCC2)SSC[C@@H](C(=O)N2CCC[C@H]2C(=O)N[C@@H](CCCNC(=N)N)C(=O)NCC(N)=O)NC(=O)[C@H](CC(N)=O)NC1=O [d(CH2)5 D-Phe^2 VAVP] ([dF]FVNCPRG-NH2; linker N-5 via X1) | – | – | 8.06 | –
CCOc1ccc(C[C@H]2NC(=O)CC3(CCCCC3)SSC[C@@H](C(=O)N3CCC[C@@H]3C(=O)N[C@@H](CCCNC(=N)N)C(=O)NCC(N)=O)NC(=O)[C@H](CC(N)=O)NC(=O)[C@H](C(C)C)NC(=O)[C@H](Cc3ccccc3)NC2=O)cc1 [d(CH2)5 D-Tyr(Et)^2 D-Pro^7 VAVP] ([dY](Et)FVNC[dP]RG-NH2; linker N-5 via X1) | 8.10 ± 0.06 | 7.64 ± 0.08 | – | –
CCOc1ccc(C[C@H]2NC(=O)CC3(CCCCC3)SSC[C@@H](C(=O)N3CCC[C@H]3C(=O)N[C@@H](CCCCN)C(=O)NCC(N)=O)NC(=O)[C@H](CC(N)=O)NC(=O)[C@H](C(C)C)NC(=O)[C@H](Cc3ccccc3)NC2=O)cc1 [d(CH2)5 D-Tyr(Et)^2 Val^4 Lys^8 VP] ([dY](Et)FVNCPKG-NH2; linker N-5 via X1) | – | – | – | Anti-Antidiuretic pA2 ([2]; rat, in vivo): 7.72
CCOc1ccc(C[C@@H]2NC(=O)CC3(CCCCC3)SSC[C@@H](C(=O)N3CCC[C@H]3C(=O)N[C@@H](CCCNC(=N)N)C(=O)NCC(N)=O)NC(=O)[C@H](CC(N)=O)NC(=O)[C@H](CCC(N)=O)NC(=O)[C@H](Cc3ccccc3)NC2=O)cc1 [d(CH2)5 Tyr(Et)AVP, reference compound] (Y(Et)FQNCPRG-NH2; linker N-5 via X1) | – | – | – | Antagonistic Activities Antivasopressor pA2 [1]: 8.47 ± 0.04
CCOc1ccc(C[C@@H]2NC(=O)CC3(CCCCC3)SSC[C@@H](C(=O)N3CCC[C@H]3C(=O)N[C@H](CCCNC(=N)N)C(=O)NCC(N)=O)NC(=O)[C@H](CC(N)=O)NC(=O)[C@H](C(C)C)NC(=O)[C@H](Cc3ccccc3)NC2=O)cc1 [d(CH2)5 Tyr(Et)VDAVP] (Y(Et)FVNCP[dR]G-NH2; linker N-5 via X1) | 8.31 ± 0.05 | 7.10 ± 0.08 | – | –
CCOc1ccc(C[C@@H]2NC(=O)CC3(CCCCC3)SSC[C@@H](C(=O)N3CCC[C@@H]3C(=O)N[C@@H](CCCNC(=N)N)C(=O)NCC(N)=O)NC(=O)[C@H](CC(N)=O)NC(=O)[C@H](C(C)C)NC(=O)[C@H](Cc3ccccc3)NC2=O)cc1 [d(CH2)5 Tyr(Et)^2 D-Pro^7 VAVP] (Y(Et)FVNC[dP]RG-NH2; linker N-5 via X1) | 8.23 ± 0.13 | 6.32 ± 0.11 | – | –
CCOc1ccc(C[C@@H]2NC(=O)CC3(CCCCC3)SSC[C@@H](C(=O)N3CCC[C@H]3C(=O)N[C@@H](CCCCN)C(=O)NCC(N)=O)NC(=O)[C@H](CC(N)=O)NC(=O)[C@H](C(C)C)NC(=O)[C@H](Cc3ccccc3)NC2=O)cc1 [d(CH2)5 Tyr(Et)^2 Val^4 Lys^8 VP] (Y(Et)FVNCPKG-NH2; linker N-5 via X1) | – | – | – | Anti-Antidiuretic pA2 ([2]; rat, in vivo): 7.29
COc1ccc(C[C@@H]2NC(=O)CC3(CCCCC3)SSC[C@@H](C(=O)N3CCC[C@H]3C(=O)N[C@@H](CCCNC(=N)N)C(=O)NCC(N)=O)NC(=O)[C@H](CC(N)=O)NC(=O)[C@H](CCC(N)=O)NC(=O)[C@H](Cc3ccccc3)NC2=O)cc1 [d(CH2)5 Tyr(Me)AVP, [1-(β-mercapto-β,β-cyclopentamethylenepropionic acid), 2-O-methyltyrosine]-arginine vasopressin, reference compound] (Y(Me)FQNCPRG-NH2; linker N-5 via X1) | 8.62 ± 0.03 | – | – | Antagonistic Activities Antivasopressor pA2 [1]: 8.62 ± 0.03
COc1ccc(C[C@@H]2NC(=O)CC3(CCCCC3)SSC[C@@H](C(=O)N3CCC[C@H]3C(=O)N[C@H](CCCNC(=N)N)C(=O)NCC(N)=O)NC(=O)[C@H](CC(N)=O)NC(=O)[C@H](C(C)C)NC(=O)[C@H](Cc3ccccc3)NC2=O)cc1 [d(CH2)5 Tyr(Me)VDAVP, [1-(β-mercapto-β,β-cyclopentamethylenepropionic acid), 2-O-methyltyrosine, 4-valine, 8-D-arginine]vasopressin] (Y(Me)FVNCP[dR]G-NH2; linker N-5 via X1) | 8.44 ± 0.07 | 6.68 ± 0.11 | – | –
COc1ccc(C[C@@H]2NC(=O)CC3(CCCCC3)SSC[C@H](C(=O)N3CCC[C@H]3C(=O)N[C@@H](CCCNC(=N)N)C(=O)NCC(N)=O)NC(=O)[C@H](CC(N)=O)NC(=O)[C@H](CCC(N)=O)NC(=O)[C@H](Cc3ccccc3)NC2=O)cc1 [d(CH2)5 Tyr(Me)^2 D-Cys^6 AVP] (Y(Me)FQN[dC]PRG-NH2; linker N-5 via X1) | 7.87 ± 0.09 | 5.5 | – | –
COc1ccc(C[C@H]2NC(=O)CC3(CCCCC3)SSC[C@@H](C(=O)N3CCC[C@H]3C(=O)N[C@@H](CCCNC(=N)N)C(=O)NCC(N)=O)NC(=O)[C@H](CC(N)=O)NC(=O)[C@H](CCC(N)=O)NC(=O)[C@H](Cc3ccccc3)NC2=O)cc1 [d(CH2)5 [D-Tyr(Me)^2]AVP, [1-(β-mercapto-β,β-cyclopentamethylenepropionic acid), 2-D-(O-methyl)tyrosine]-arginine vasopressin] ([dY](Me)FQNCPRG-NH2; linker N-5 via X1) | 8.27 ± 0.02 | 6.98 ± 0.08 | – | –
[1-(β-mercapto-β,β-cyclopentamethylenepropionic acid), 2-D-phenylalanine, 4-aminobutyric acid]-arginine vasopressin [d(CH 2)5 D-Phe^2 Abu^4 AVP] | – | – | 7.96 | Antivasopressor Potency ED [1]: 1.4 ± 0.3 nmol/kg; AD/VP [1]: 1.8; Anti-Antidiuretic ED ([2]; Table 2): 0.77 ± 0.12 nmol/kg
[1-(β-mercapto-β,β-cyclopentamethylenepropionic acid), 2-D-phenylalanine, 4-leucine, 7-hydroxyproline]-arginine vasopressin [d(CH2)5 D-Phe^2 Ile^4 Hy-Pro^7 AVP] | – | – | 7.74 | Antivasopressor Potency ED [1]: 0.9 ± 0.2 nmol/kg; AD/VP [1]: 0.7; Anti-Antidiuretic ED ([2]; Table 2): 1.3 ± 0.3 nmol/kg
